Assay results: patent US8901142B2, “Fused tricyclic compounds as mTOR inhibitors” (Merck Sharp & Dohme Corp., priority 2011, dated 2014)

Columns and labels:
[1] = test system: mTORC2 (pAKT S473) in PC3 cells; test: mTOR target engagement assay, immunofluorescent cell-based, mTORC2 activity by reduction of pAKT S473; settings: Homo sapiens, PC-3, ninety minutes at 37° C., immunofluorescence
Protocol: (§1) The target engagement of mTOR kinase inhibitors was evaluated using an immunofluorescent cell-based assay. In this assay, inhibition of mTORC1 activity was measured by the reduction in the level of phosphorylated 4E-BP1Thr37/46 (p4E-BP1 Thr37/46), and inhibition of mTORC2 activity was measured by the reduction of phosphorylated AKTSer473 (pAKT S473).
(§2) PC3 cells (prostate tumor cell-line that contains a mutation in the tumor suppressor PTEN, that promotes the phosphorylation and activation of AKT and 4E-BP 1) were used in the immunofluorescence assay. PC3 cells were seeded on 384 well plates (black clear bottom, Matrix #4332) overnight. PC3 cells were then treated with 40 μl of the serially diluted test compounds (in 5% fetal bovine serum, F12 medium containing 0.25% DMSO) for ninety minutes at 37° C. The test compound solution was removed, and the plates were washed gently two times with 25 μl phosphate buffered saline (PBS). The cells were fixed by adding 25 μl of Prefer reagent (from Anatech LTD, Cat#414, a glyoxal fixative for fixing proteins within a cell) for sixty minutes followed by three washes with PBS. 5% Goat serum in PBS/0.3% Triton was used to block non-specific binding (60 minutes).
(§3) The primary antibodies targeting pAKT S473 and p4E-BP1 Thr37/46 were diluted into PBS/0.3% Triton and incubated with the cells overnight at 4° C. The antibodies targeting pAKTS473 (Cat#4085, Cell signaling) and p4E-BP1 Thr37/46 (Cat#2855, Cell signaling) were used at a 1:100 dilution. Plates were washed three times with PBS/0.1% Tween 20 before adding the secondary antibody at a 1:200 dilution. (goat anti-rabbit containing a fluorescent label, Alexa Fluor 488, Cat# A11008, Invitrogen) in PBS/0.3% Triton for 60 minutes.
(§4) Finally, the plates were washed three times with PBS/0.1% Tween 20 and the fluorescent intensity was read using an Analyst HT from Molecular Devices. The fluorescent intensity values from the serially diluted compound treatment group were analyzed using the Xlfit 4 program ([…]) (Formula 205: Y=Bottom+(Top-Bottom)/(1+(IC50/X)^Hillslope) to generate the IC50 value. Where Top is the maximum signal without Compound (+DMSO only) and Bottom represents maximum inhibition. Y is the fluorescence at some compound concentration. The control used to determine the fluorescent intensities for 100% pAKT S473 or 100% phosphorylated p4E-BP1 Thr37/46 were measured from untreated wells that contained only DMSO, instead of test compound.

[2] = test system: mTORC1 (p4E-BP1 Thr37/46) in PC3 cells; test: mTOR target engagement assay, immunofluorescent cell-based, mTORC1 activity by reduction of p4E-BP1 Thr37/46; settings: Homo sapiens, PC-3, ninety minutes at 37° C., immunofluorescence
Protocol: as §1, §2, §3, §4

Q: With `Cc1n[nH]c2c1c([C@@H]1C[C@H]3CC[C@@H](C1)N3C(=O)c1nnc[nH]1)nc1c(-c3ccc(-c4ccccc4)nc3)cnn12` [Example 1, ((1R,3s,5S)-3-(3-methyl-6-(6-phenylpyridin-3-yl)-1H-dipyrazolo[1,5-a:4′,3′-e]pyrimidin-4-yl)-8-azabicyclo[3.2.1]octan-8-yl)(4H-1,2,4-triazol-3-yl)methanone] as the compound, how does the IC50 [1] read?
A: Its IC50 is 1 to 100 nM.

Q: And the IC50 [2]?
A: The IC50 was 100 to 1000 nM.

Q: Which results are given for `CC(C)(O)c1ccc(-c2cnn3c2nc([C@@H]2C[C@H]4CC[C@@H](C2)N4C(=O)CO)c2cc[nH]c23)cn1` [Example 4, 2-hydroxy-1-((1R,3s,5S)-3-(3-(6-(2-hydroxypropan-2-yl)pyridin-3-yl)-8H-pyrazolo[1,5-a]pyrrolo[3,2-e]pyrimidin-5-yl)-8-azabicyclo[3.2.1]octan-8-yl)ethanone]?
A: IC50 [1]: 1000 to 2000 nM; IC50 [2]: 100 to 1000 nM

Q: `CC(C)(O)c1ccc(-c2cnn3c2nc([C@@H]2C[C@H]4CC[C@@H](C2)N4C(=O)c2nnc[nH]2)c2cc[nH]c23)cn1` [Example 3, ((1R,3s,5S)-3-(3-(6-(2-hydroxypropan-2-yl)pyridin-3-yl)-8H-pyrazolo[1,5-a]pyrrolo[3,2-e]pyrimidin-5-yl)-8-azabicyclo[3.2.1]octan-8-yl)(1H-1,2,4-triazol-3-yl)methanone] was tested. Which IC50 [1] did it give?
A: Its IC50 is 100 to 1000 nM.

Q: And the IC50 [2]?
A: Its IC50 is 100 to 1000 nM.

Q: What does the source list for `O=C(CO)N1[C@@H]2CC[C@H]1C[C@H](c1nc3c(-c4ccc(-c5ncc[nH]5)nc4)cnn3c3[nH]ccc13)C2` [Example 5, 1-((1R,3s,5S)-3-(3-(6-(1H-imidazol-2-yl)pyridin-3-yl)-8H-pyrazolo[1,5-a]pyrrolo[3,2-e]pyrimidin-5-yl)-8-azabicyclo[3.2.1]octan-8-yl)-2-hydroxyethanone]?
A: IC50 [1]: 1 to 100 nM; IC50 [2]: 100 to 1000 nM

Q: How did the IC50 [1] turn out when `O=C(c1nnc[nH]1)N1[C@@H]2CC[C@H]1C[C@H](c1nc3c(-c4ccc(-c5ncc[nH]5)nc4)cnn3c3[nH]ccc13)C2` [Example 6, ((1R,3s,5S)-3-(3-(6-(1H-imidazol-2-yl)pyridin-3-yl)-8H-pyrazolo[1,5-a]pyrrolo[3,2-e]pyrimidin-5-yl)-8-azabicyclo[3.2.1]octan-8-yl)(4H-1,2,4-triazol-3-yl)methanone] was run?
A: Its IC50 is 1 to 100 nM.

Q: And the IC50 [2]?
A: Its IC50 is 1 to 100 nM.

Q: Which results are given for `O=C(c1nnc[nH]1)N1[C@@H]2CC[C@H]1C[C@H](c1nc3c(-c4ccc(-c5ccccc5)nc4)cnn3c3[nH]ccc13)C2` [Example 2, ((1R,3s,5S)-3-(3-(6-phenylpyridin-3-yl)-8H-pyrazolo[1,5-a]pyrrolo[3,2-e]pyrimidin-5-yl)-8-azabicyclo[3.2.1]octan-8-yl)(4H-1,2,4-triazol-3-yl)methanone]?
A: IC50 [1]: 1 to 100 nM; IC50 [2]: 1 to 100 nM
